In patent publication US20220323468A1, “REDUCED NICOTINAMIDERIBOSIDES FOR THE TREATMENT/PREVENTION OF LIVER DISEASE” (SOCIETE DES PRODUITS NESTLE S.A., priority 2019, published 2022):
“Also recorded” adds a separate entry of the source. Where a name gives a salt, the structure may show the parent alone. Read-outs that look alike come from different tables or passages of the source. One block for each compound: values may come before it.

Key:
[1] = test system: intracellular NRH, NMNH, NR and NMN; assay: Intracellular NAD+ related metabolites after treatment (UHPLC-MS); type: cell-based
Text: Levels of NRH and other NAD-related metabolites in biological samples were obtained by using a cold liquid-liquid extraction using a mixture of methanol:water:chloroform in 5:3:5 (v/v), from which the polar phase was recovered for hydrophilic interaction ultra-high performance liquid chromatography mass spectrometry (UHPLC-MS) analysis. The UHPLC consisted of a binary pump, a cooled autosampler, and a column oven (DIONEX Ultimate 3000 UHPLC+ Focused, Thermo Scientific), connected to a triple quadrupole spectrometer (TSQ Vantage, Thermo Scientific) equipped with a heated electrospray ionisation (H-ESI) source. Of each sample, 2 μL were injected into the analytical column (2.1 mm×150 mm, 5 μm pore size, 200 Å HILICON iHILIC®-Fusion(P)), guarded by a pre-column (2.1 mm×20 mm, 200 Å HILICON iHILIC®-Fusion(P) Guard Kit) operating at 35° C. The mobile phase (10 mM ammonium acetate at pH 9, A, and acetonitrile, B) was pumped at 0.25 mL/min flow rate over a linear gradient of decreasing organic solvent (0.5-16 min, 90-25% B), followed by re-equilibration for a total run time of 30 min. The MS operated in positive mode at 3500 V with multiple reaction monitoring (MRM). The software Xcalibur v4.1.31.9 (Thermo Scientific) was used for instrument control, data acquisition and processing. Retention time and mass detection was confirmed by authentic standards. […]

NAMPT = biological target: T1, NAMPT (Mus musculus, UniProt Q99KQ4); assay: NRH-induced NAD+ synthesis with NAMPT inhibitor FK866; type: cell-based; conditions: experiments using FK866, a NAMPT inhibitor
T1 construct: endogenous in cells
T1 sequence (Q99KQ4 whole entry): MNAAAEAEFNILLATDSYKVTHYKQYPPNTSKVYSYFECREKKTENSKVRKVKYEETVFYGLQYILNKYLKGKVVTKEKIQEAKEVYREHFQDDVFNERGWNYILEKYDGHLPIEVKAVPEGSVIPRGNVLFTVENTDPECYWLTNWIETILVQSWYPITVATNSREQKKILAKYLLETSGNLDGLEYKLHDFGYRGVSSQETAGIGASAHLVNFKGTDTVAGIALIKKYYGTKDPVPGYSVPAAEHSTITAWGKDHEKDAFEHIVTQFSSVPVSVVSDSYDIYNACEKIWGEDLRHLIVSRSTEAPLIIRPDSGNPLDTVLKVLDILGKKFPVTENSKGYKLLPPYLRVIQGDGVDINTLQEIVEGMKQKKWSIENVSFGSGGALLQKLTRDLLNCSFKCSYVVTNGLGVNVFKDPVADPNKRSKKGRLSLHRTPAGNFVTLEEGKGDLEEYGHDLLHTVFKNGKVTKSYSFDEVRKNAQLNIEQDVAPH
Text: (§1) The action of NRH was also NAMPT-independent, based on experiments using FK866, a NAMPT inhibitor. If NRH led to NAD+ synthesis via the formation of NMNH, this hypothetical path would require the phosphorylation of NRH into NMNH. Given the essential and rate-limiting role of NRK1 in NR phosphorylation, we wondered whether the ability of NRH to boost NAD+ levels was NRK1 dependent. To answer this question, we evaluated NRH action in primary hepatocytes from either control or NRK1 knockout (NRK1KO) mice. […] Further, they rule out the possibility that NRH-induced NAD+ […] is driven by NRH oxidation into NR.

[2] = Stability in FBS supplemented media
Text: (§2) NR degradation to NAM has been proposed as a limitation for its pharmacological efficacy. To evaluate whether NRH was also susceptible to degradation to NAM, we spiked NRH or NR in isolated mouse plasma. […] We also tested the stability of NRH in other matrixes.

[3] = parameters: species or system mice; conditions: mouse, in vivo, 250 mg/kg
Description: 8 week-old C57Bl/6NTac mice were orally gavaged with either saline (as vehicle), and NRH (250 mg/kg). After 2 hours, liver, skeletal muscle and kidney NRH levels were evaluated. All results are expressed as mean+/− SEM of n=4 mice per group, as areas under the signal by LC-MS analysis, corrected by total protein amount of tissue.
(§3) Levels of NRH and other NAD-related metabolites in biological samples were obtained by using a cold liquid-liquid extraction using a mixture of methanol:water:chloroform in 5:3:5 (v/v), from which the polar phase was recovered for hydrophilic interaction ultra-high performance liquid chromatography mass spectrometry (UHPLC-MS) analysis. The UHPLC consisted of a binary pump, a cooled autosampler, and a column oven (DIONEX Ultimate 3000 UHPLC+ Focused, Thermo Scientific), connected to a triple quadrupole spectrometer (TSQ Vantage, Thermo Scientific) equipped with a heated electrospray ionisation (H-ESI) source. Of each sample, 2 μL were injected into the analytical column (2.1 mm×150 mm, 5 μm pore size, 200 Å HILICON iHILIC®-Fusion(P)), guarded by a pre-column (2.1 mm×20 mm, 200 Å HILICON iHILIC®-Fusion(P) Guard Kit) operating at 35° C. The mobile phase (10 mM ammonium acetate at pH 9, A, and acetonitrile, B) was pumped at 0.25 mL/min flow rate over a linear gradient of decreasing organic solvent (0.5-16 min, 90-25% B), followed by re-equilibration for a total run time of 30 min. The MS operated in positive mode at 3500 V with multiple reaction monitoring (MRM). The software Xcalibur v4.1.31.9 (Thermo Scientific) was used for instrument control, data acquisition and processing. Retention time and mass detection was confirmed by authentic standards.

[4] = test system: primary hepatocytes from NRK1 knockout (NRK1KO) mice; assay: NAD+ levels in primary hepatocytes from control or NRK1 knockout mice; type: cell-based; conditions: after 1 hour of treatment
Text: as §1

AML12 hepatocytes = assay: Intracellular NAD+ levels in AML12 hepatocytes (dose-response and time course); type: cell-based
Description: Even at such relatively low dose, NRH achieved similar increases in intracellular NAD+ levels to those reached with NR at 50-fold higher concentrations. NRH achieved maximal effects on NAD+ synthesis around the millimolar range, managing to increase intracellular NAD+ levels by more than 10-fold.
NRH actions were also extremely fast (FIG. 3), as significant increases in NAD+ levels were observed within 5 minutes after NRH treatment.

[5] = Plasma NRH, NR and NAM after oral administration in mice; type: in vivo
Description: (§4) 8 week-old C57BI/6NTac mice were orally gavaged with either saline (as vehicle), NR (500 mg/kg) or NRH (500 mg/kg). After 1 hour, liver, skeletal muscle and kidney NAD^+ levels were evaluated. All results are expressed as mean+/− SEM of n=5 mice per group. * indicates statistical difference at p<0.05 vs. vs. saline-treated mice. # indicates statistical difference at p<0.05 vs. NR treated mice.
as §3
(§5) Oral administration of NRH led to very similar results to those observed after IP administration. […] NRH was detectable in plasma 1 h after oral administration. In contrast, NR levels were undetectable at 1 h after NR administration.

Stability in water = type: physicochemical; conditions: pH=7, at room temperature, 48 h
Text: as §2

[6] = Tissue NAD+ levels after IP injection in mice; type: in vivo; conditions: IP 500 mg/kg, after 1 h
Description: (§6) The above results prompted us to test whether NRH could act as an effective NAD+ precursor in vivo. For this, we first intraperitoneally (IP) injected mice with either NR or NRH (500 mg/kg).

[7] = Circulating NAM, NRH and NR after IP injection in mice; type: in vivo; conditions: for NAM levels in circulation: mice, IP 500 mg/kg
Text: as §3, §6

adenosine kinase (AK) = biological target: T2, adenosine kinase (AK) (Mus musculus, UniProt P55264); assay: NRH-induced NAD+ synthesis with adenosine kinase inhibitors; type: cell-based; parameters: effect of AK inhibitor on NRH action (NAD+ synthesis): dose or concentration left out as unconfirmed; conditions: for effect of AK inhibitor on NRH action (NAD+ synthesis): AML12 cells, inhibitor (5-IT) 1 hour prior to NRH, NAD+ measured 1 hour later
T2 construct: endogenous in cells; host or cells: AML12 cells
T2 sequence (P55264 whole entry): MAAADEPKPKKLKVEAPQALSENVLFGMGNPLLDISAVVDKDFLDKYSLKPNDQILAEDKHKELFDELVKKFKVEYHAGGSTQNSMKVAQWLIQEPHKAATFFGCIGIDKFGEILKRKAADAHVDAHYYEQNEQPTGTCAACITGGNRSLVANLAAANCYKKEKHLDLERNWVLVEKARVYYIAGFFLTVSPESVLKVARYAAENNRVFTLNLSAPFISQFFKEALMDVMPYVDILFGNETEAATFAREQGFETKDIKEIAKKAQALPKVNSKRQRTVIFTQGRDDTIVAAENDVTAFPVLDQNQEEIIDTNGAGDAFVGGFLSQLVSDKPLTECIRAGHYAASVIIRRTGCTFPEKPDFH
Description: AML12 cells were treated with an adenosine kinase inhibitor (5-IT; […]) for 1 hour prior to NRH treatment at the doses indicated. Then, 1 hour later, acidic extracts were obtained to measure NAD^+ levels.

3T3 fibroblasts = assay: NAD+ levels in 3T3 fibroblasts after NRH treatment; type: cell-based
[8] = Hepatic NAD+ levels after oral administration in mice; type: in vivo; conditions: compared with NR
Description: as §4, §5

C2C12 myotubes = assay: NAD+ levels in C2C12 myotubes after NRH treatment; type: cell-based
[9] = test system: equilibrative nucleoside transporters (ENTs); assay: NRH-induced NAD+ synthesis under ENT blockage; type: cell-based; conditions: in the presence of S-(4-nitrobenzyl)-6-thioinosine (NBTI)
Text: In order to understand the exact path by which NRH synthesizes NAD+, we initially evaluated whether NRH, could be transported into the cell by equilibrative nucleoside transporters (ENTs).

[10] = Stability in isolated mouse plasma; type: in vitro ADME; conditions: for compound levels in plasma / generation of NAM in plasma: spiked in isolated mouse plasma, 2 h of incubation
Text: as §2

INS1-cells = assay: NAD+ levels in INS1-cells after NRH treatment; type: cell-based
[11] = Intrahepatic and hepatic mitochondrial NAD+ after IP injection in mice; type: in vivo; conditions: NR 500 mg/kg or equimolar amounts, 1 hour later; for hepatic mitochondrial NAD+ levels: isolated liver mitochondria
Description: 10 week old male mice were fasted for 2 hours prior to intraperitoneal injection (IP) with saline as control/vehicle, nicotinamide riboside (NR; 500 mg/kg) or equimolar amounts of dihydronicotinamide riboside (NRH) or nicotinamide (NAM). Then, 1 hour later, mice were euthanized and a piece of liver was snap frozen while another piece was used for mitochondrial isolation following a published procedure (Frezza et al., 2007; Nature Protocols). The piece of snap frozen liver was weighted and submitted to acidic extraction to evaluate NAD+ levels through enzymatic methods. For isolated mitochondria, protein was quantified and 200 micrograms of protein were used for acidic extraction and NAD+ measurement through enzymatic methods. […] All results are mean+/− SEM of n=4 animals per group. * indicates statistical difference at p<0.05 vs. control/vehicle group.

NMNAT = assay: NRH-induced NAD+ synthesis with NMNAT inhibitor gallotannin; type: cell-based
Text: As a follow-up step, NMNAT enzymes could catalyze the transition from NMNH to NADH.

Structure (SMILES): NC(=O)C1=CN([C@@H]2O[C@H](CO)[C@@H](O)[C@H]2O)C=CC1 [NRH]
intracellular detection of NRH and NMNH ([1]; 5 minutes after treatment): could be detected intracellularly
intracellular NR and NMN ([1]; after treatment, compared with NR): increase in intracellular NR and NMN, greater than that triggered by NR itself
dependence of NAD+ increasing action on NAMPT (NAMPT): NAMPT-independent
degradation to NAM [2]: did not degrade to NAM
NRH in kidney [3]: found intact, in high levels
NRH in liver [3]: found intact, in high levels
NRH in muscle [3]: found intact, in high levels
NAD+ levels in NRK1KO derived primary hepatocytes [4]: not affected by NRK1 deficiency
time to significant increase in NAD+ levels after treatment (AML12 hepatocytes; AML12 hepatocytes, FIG. 3): ≤ 5 min
ability to increase intracellular NAD+ (AML12 hepatocytes; AML12 hepatocytes, compared with NR): superior to that of NR
concentration at which NAD+ levels are significantly increased (AML12 hepatocytes; AML12 hepatocytes, dose-response, FIG. 2): 10 µM
fold higher NR concentration needed to reach similar increases in intracellular NAD+ (AML12 hepatocytes; NRH at 10 μM versus NR): 50 fold
maximal increase of intracellular NAD+ levels (AML12 hepatocytes; around the millimolar range): more than 10 fold
NRH concentration in plasma ([5]; mice, after oral gavage): 11.16 ± 1.74 µM
administered compound in plasma ([5]; mouse, in vivo, po): detectable
stability in water (Stability in water): certified NRH stability
NAD+ levels in kidney [6]: increased NAD+ levels
NAD+ levels in liver [6]: increased NAD+ levels
NAD+ levels in muscle [6]: increased NAD+ levels
NAM levels in circulation [7]: only a very mild increase
NR in circulation ([7]; mouse, in vivo, ip): much higher levels than those detected after NR injection itself
NRH in circulation ([7]; mouse, in vivo, ip): detectable in circulation
generation of NMNH, NADH and NAD+ from NRH (adenosine kinase (AK); metabolomic analyses, upon inhibition of AK): fully blunted
NAD+ levels (3T3 fibroblasts): highly elevated
effect on hepatic NAD+ levels [8]: more potent effect on hepatic NAD+ levels than NR
NAD+ levels (C2C12 myotubes): highly elevated
capacity as extracellular NAD+ precursor under ENT blockage [9]: largely lost its capacity as an extracellular NAD+ precursor
NR production in plasma ([10]; incubation in isolated plasma): did not lead to NR production
compound levels in plasma [10]: remained stable
generation of NAM in plasma [10]: NAM was not generated; also recorded: did not significantly alter NAM levels
NAD+ levels (INS1-cells): highly elevated
intrahepatic NAD+ [11]: increase intrahepatic NAD+
hepatic mitochondrial NAD+ levels [11]: only NRH increases mitochondrial NAD+ levels

degradation to NAM ([2]; FBS supplemented media): as occurs with NR
NAD+ levels in NRK1KO derived primary hepatocytes [4]: failed to increase NAD+ levels
circulating NAM relative to that after NRH treatment ([5]; C57BI/6NTac, mouse, in vivo, po, 1 h): ~4 fold
administered compound in plasma ([5]; mouse, in vivo, po): undetectable
circulating NAM ([5]; mouse, in vivo, po): large increases
NAM levels in circulation [7]: highly increased
compound levels in plasma [10]: decayed
generation of NAM in plasma [10]: increase in NAM
Structure (SMILES): NC(=O)c1ccc[n+]([C@@H]2O[C@H](CO)[C@H](O)C2O)c1 (stereo partly drawn) [NR, 1-b-D-ribofuranosyl-3-pyridinecarboxamide salt, reference compound]
NAD+ levels in kidney [6]: increased NAD+ levels
NAD+ levels in liver [6]: increased NAD+ levels
NAD+ levels in muscle [6]: increased NAD+ levels
intrahepatic NAD+ [11]: increase intrahepatic NAD+
hepatic mitochondrial NAD+ levels [11]: only NRH increases mitochondrial NAD+ levels

Structure (SMILES): O=C(OC[C@H]1O[C@@H](OC(=O)c2cc(O)c(O)c(OC(=O)c3cc(O)c(O)c(O)c3)c2)[C@H](OC(=O)c2cc(O)c(O)c(OC(=O)c3cc(O)c(O)c(O)c3)c2)[C@@H](OC(=O)c2cc(O)c(O)c(OC(=O)c3cc(O)c(O)c(O)c3)c2)[C@@H]1OC(=O)c1cc(O)c(O)c(OC(=O)c2cc(O)c(O)c(O)c2)c1)c1cc(O)c(O)c(OC(=O)c2cc(O)c(O)c(O)c2)c1 [gallotannin]
effect of NMNAT inhibitor on NAD+ synthesis after NRH treatment (NMNAT): largely compromised NAD+ synthesis
effect of NMNAT inhibitor on NRH action (NMNAT; NRH at maximal doses (0.5 mM)): part of the NRH action remained
effect of NMNAT inhibitor on NRH action (NMNAT; NRH at submaximal doses): totally blocked

effect of AK inhibitor on NRH action (NAD+ synthesis) (adenosine kinase (AK)): confirmed
Structure (SMILES): Nc1ncnc2nc(-c3ccc(N4CCOCC4)nc3)cc(-c3cccc(Br)c3)c12 [ABT-702]

Structure (SMILES): Nc1ncnc2c1c(I)cn2[C@@H]1O[C@H](CO)[C@@H](O)[C@H]1O [5-IT, 5-iodotubercidin]
effect of AK inhibitor on NRH action (NAD+ synthesis) (adenosine kinase (AK)): fully ablated the action of NRH
formation of NR and NMN after NRH treatment (adenosine kinase (AK); with 5-IT treatment): prevented the formation of NR and NMN

Structure (SMILES): NC(=O)c1cccnc1 [NAM, nicotinamide]
intrahepatic NAD+ [11]: increase intrahepatic NAD+
hepatic mitochondrial NAD+ levels [11]: only NRH increases mitochondrial NAD+ levels
